Laboratory results taken from patent US9796711B2, “Substituted pyrazolo[3,4-b]pyridin-6-carboxylic acids and method of use” (AbbVie S.àr.l., priority 2015, dated 2017).

Target: T1, ΔF508-CFTR (Homo sapiens, UniProt P13569, DEL508-508)
T1 construct: host or cells: CFBE41o-, doxycycline-inducible
Test: CFTR cell surface levels using HRP-tagged ΔF508-CFTR expressing CFBE cells, in the presence of a co-corrector
Format: cell-based
Conditions: HRP-tagged ΔF508-CFTR expressing CFBE cells, in the presence of 3 μM co-corrector; for EC50: read-out: EC50
Text: Measuring CFTR Cell Surface Levels Using HRP-Tagged AF508-CFTR Expressing CFBE Cells
The HRP-tagged AF508-CFTR cell assay measures the expression of CFTR-ΔF508 at the plasma membrane. CFTR-ΔF508 has a folding defect leading to absence of protein at the plasma membrane. This assay is used to evaluate the capacity of compounds to increase the expression of CFTR-ΔF508 at the plasma membrane. The CFTR-ΔF508 is tagged with HRP (horse radish peroxidase enzyme) within the ECL4 (Extracellular loop 4) of CFTR (Phuan, P.-W. et al. Synergy-based small-molecule screen using a human lung epithelial cell line yields AF508-CFTR correctors that augment VX-809 maximal efficacy. Mol. Pharmacol. 86, 42-51 (2014)). When HRP-tagged AF508-CFTR is present at the plasma membrane, the HRP enzyme activity can be measured. The amount of CFTR-ΔF508 that can be rescued to the plasma membrane is correlated with the amount of functional enzyme that can be measured.
There are several ways to measure the capacity of compounds to rescue CFTR-ΔF508 to the plasma membrane; either compounds are evaluated on their own and the impact on plasma membrane levels is measured or compounds are evaluated in combination with a co-corrector, i.e. a compound that rescues CFTR-ΔF508 to the plasma membrane but rescue can be enhanced by addition of compounds due to a complementary mode of action.
Activity of Compounds in Combination with Co-Corrector:
For this purpose doxycycline-inducible AF508-CFTR-HRP expressing CFBE4lo-cells (obtained from Gergely Lukacs, McGill University) were maintained in MEM (Minimum Essential Medium, Gibco; 31095) supplemented with 10% fetal bovine serum (Hyclone; SV30160.03) under puromycin (3 μg/mL) and G418 selection (0.2 mg/mL). For compound testing, cells were seeded at 4000 cells/well in white 384-well plates (Greiner; 781080) in 50 μL of medium containing 0.5 μg/mL doxycycline and incubated for 68 hours at 37° C., 5% CO2. On day four, 10 μL of test compounds diluted in PBS (phosphate buffered saline) were added to the plates at a final DMSO concentration of 0.1%. In order to measure compound synergy with a co-corrector, 3 μM co-corrector (3-[(2R,4R)-4-({[1-(2,2-difluoro-1,3-benzodioxol-5-yl)cyclopropyl]carbonyl}amino)-7-methoxy-3,4-dihydro-2H-chromen-2-yl]benzoic acid) was added along with test compounds. All compound plates contained negative controls (DMSO) and positive controls (3 μM co-corrector). Cell plates were incubated at 33° C., 5% CO2 for 20 hours. On day five, the cells were washed five times with phosphate-buffered saline, and HRP activity was assayed by the addition of 50 μL/well of HRP substrate (SuperSignal™ West Pico Chemiluminescent Substrate, Thermo Scientific; 34080). After incubation for 15 minutes in the dark, the chemiluminescence was measured using a plate reader (EnVision®, Perkin Elmer). Raw data were normalized to percentage activity values using the equation: 100×(Sample−Negative control)/(Positive control−Negative Control).

T1 sequence (P13569 with tags, fused parts or gaps DEL508-508): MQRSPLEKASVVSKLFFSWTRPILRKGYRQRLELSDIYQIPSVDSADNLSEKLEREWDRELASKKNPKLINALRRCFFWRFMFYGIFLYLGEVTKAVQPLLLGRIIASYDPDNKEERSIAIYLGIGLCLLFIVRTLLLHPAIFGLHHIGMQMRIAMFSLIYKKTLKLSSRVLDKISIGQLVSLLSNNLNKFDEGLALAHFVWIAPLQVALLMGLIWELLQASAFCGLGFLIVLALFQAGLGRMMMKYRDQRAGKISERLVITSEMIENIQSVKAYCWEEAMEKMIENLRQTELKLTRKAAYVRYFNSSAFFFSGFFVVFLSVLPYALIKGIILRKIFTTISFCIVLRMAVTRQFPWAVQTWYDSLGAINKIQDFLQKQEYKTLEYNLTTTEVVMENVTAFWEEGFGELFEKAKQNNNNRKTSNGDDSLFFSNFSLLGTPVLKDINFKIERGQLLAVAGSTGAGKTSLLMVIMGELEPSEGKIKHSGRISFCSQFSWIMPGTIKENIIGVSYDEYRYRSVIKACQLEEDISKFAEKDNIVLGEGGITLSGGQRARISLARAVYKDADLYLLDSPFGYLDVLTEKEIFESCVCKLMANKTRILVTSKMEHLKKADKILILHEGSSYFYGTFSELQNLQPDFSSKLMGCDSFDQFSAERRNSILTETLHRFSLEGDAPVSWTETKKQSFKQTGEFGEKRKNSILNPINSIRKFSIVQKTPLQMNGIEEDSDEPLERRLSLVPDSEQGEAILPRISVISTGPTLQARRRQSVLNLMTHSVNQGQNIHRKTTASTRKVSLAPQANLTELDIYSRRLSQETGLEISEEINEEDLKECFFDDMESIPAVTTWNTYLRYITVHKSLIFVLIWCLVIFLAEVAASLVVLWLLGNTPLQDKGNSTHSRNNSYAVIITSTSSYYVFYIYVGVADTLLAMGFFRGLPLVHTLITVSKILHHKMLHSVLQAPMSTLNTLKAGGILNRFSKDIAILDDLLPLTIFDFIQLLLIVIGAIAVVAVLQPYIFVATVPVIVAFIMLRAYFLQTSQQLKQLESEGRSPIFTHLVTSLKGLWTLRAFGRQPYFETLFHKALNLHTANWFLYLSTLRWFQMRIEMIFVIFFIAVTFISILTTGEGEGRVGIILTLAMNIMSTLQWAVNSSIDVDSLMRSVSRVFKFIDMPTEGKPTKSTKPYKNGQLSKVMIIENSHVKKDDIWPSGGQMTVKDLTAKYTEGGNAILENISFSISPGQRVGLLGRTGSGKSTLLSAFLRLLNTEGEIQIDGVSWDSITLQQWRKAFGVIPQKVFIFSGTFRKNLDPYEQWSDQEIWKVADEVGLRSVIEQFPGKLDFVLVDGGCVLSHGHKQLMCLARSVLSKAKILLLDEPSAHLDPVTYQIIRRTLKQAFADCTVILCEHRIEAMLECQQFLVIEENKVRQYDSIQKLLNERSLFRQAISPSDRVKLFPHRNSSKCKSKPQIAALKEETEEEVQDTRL

O=C(O)c1cc(N2CCS(=O)(=O)CC2)c2c(C3CCC3)nn(-c3ccccc3)c2n1 [compound 673, 3-cyclobutyl-4-(1,1-dioxo-1λ^6,4-thiazinan-4-yl)-1-phenyl-1H-pyrazolo[3,4-b]pyridine-6-carboxylic acid]
% Activation: 163.25%
EC50: 3.33 µM

O=C(O)c1cc(N2CC(N3CCCC3)C2)c2c(C3CCC3)nn(-c3ccccc3)c2n1 [compound 680, 3-cyclobutyl-1-phenyl-4-[3-(pyrrolidin-1-yl)azetidin-1-yl]-1H-pyrazolo[3,4-b]pyridine-6-carboxylic acid]
% Activation: 236.7%
EC50: 1.36 µM

CC(C)N1CCCN(c2cc(C(=O)O)nc3c2c(C2CCC2)nn3-c2ccccc2)CC1 [compound 691, 3-cyclobutyl-1-phenyl-4-[4-(propan-2-yl)-1,4-diazepan-1-yl]-1H-pyrazolo[3,4-b]pyridine-6-carboxylic acid]
% Activation: 280.7%
EC50: 5 µM

CN1CCN(CCC2CCN(c3cc(C(=O)O)nc4c3c(C3CCC3)nn4-c3ccccc3)CC2)CC1 [compound 695, 3-cyclobutyl-4-{4-[2-(4-methylpiperazin-1-yl)ethyl]piperidin-1-yl}-1-phenyl-1H-pyrazolo[3,4-b]pyridine-6-carboxylic acid]
% Activation: 385.5%
EC50: 0.119 µM

CCOCC(=O)N1CCN(c2cc(C(=O)O)nc3c2c(C2CCC2)nn3-c2ccccc2)CC1 [compound 696, 3-cyclobutyl-4-[4-(ethoxyacetyl)piperazin-1-yl]-1-phenyl-1H-pyrazolo[3,4-b]pyridine-6-carboxylic acid]
% Activation: 346.8%
EC50: 1.67 µM

O=C(O)c1cc(N2CCC[C@@H](N3CCCC3=O)C2)c2c(C3CCC3)nn(-c3ccccc3)c2n1 [compound 697, 3-cyclobutyl-4-[(3R)-3-(2-oxopyrrolidin-1-yl)piperidin-1-yl]-1-phenyl-1H-pyrazolo[3,4-b]pyridine-6-carboxylic acid]
% Activation: 217.3%
EC50: 1.27 µM

CC1(N2CCCCC2)CCN(c2cc(C(=O)O)nc3c2c(C2CCC2)nn3-c2ccccc2)CC1 [compound 698, 3-cyclobutyl-4-(4′-methyl [1,4′-bipiperidin]-1′-yl)-1-phenyl-1H-pyrazolo[3,4-b]pyridine-6-carboxylic acid]
% Activation: 242.7%
EC50: 0.745 µM

O=C(O)c1cc(N2CCC3(CC2)OCCO3)c2c(C3CCC3)nn(-c3ccccc3)c2n1 [compound 700, 3-cyclobutyl-4-(1,4-dioxa-8-azaspiro[4.5]decan-8-yl)-1-phenyl-1H-pyrazolo[3,4-b]pyridine-6-carboxylic acid]
% Activation: 290.9%
EC50: 0.128 µM

CC(C)COC(=O)N1CCN(c2cc(C(=O)O)nc3c2c(C2CCC2)nn3-c2ccccc2)CC1 [compound 701, 3-cyclobutyl-4-{4-[(2-methylpropoxy)carbonyl]piperazin-1-yl}-1-phenyl-1H-pyrazolo[3,4-b]pyridine-6-carboxylic acid]
% Activation: 498.5%
EC50: 0.0361 µM

CN1CCCN(c2cc(C(=O)O)nc3c2c(C2CCC2)nn3-c2ccccc2)CC1 [compound 702, 3-cyclobutyl-4-(4-methyl-1,4-diazepan-1-yl)-1-phenyl-1H-pyrazolo[3,4-b]pyridine-6-carboxylic acid]
% Activation: 214.1%
EC50: 1.67 µM

CC(=O)N1CCN(c2cc(C(=O)O)nc3c2c(C2CCC2)nn3-c2ccccc2)CC1 [compound 703, 4-(4-acetylpiperazin-1-yl)-3-cyclobutyl-1-phenyl-1H-pyrazolo[3,4-b]pyridine-6-carboxylic acid]
% Activation: 374.6%
EC50: 0.386 µM

COCCCN1CCN(c2cc(C(=O)O)nc3c2c(C2CCC2)nn3-c2ccccc2)CC1 [compound 704, 3-cyclobutyl-4-[4-(3-methoxypropyl)piperazin-1-yl]-1-phenyl-1H-pyrazolo[3,4-b]pyridine-6-carboxylic acid]
% Activation: 344.1%
EC50: 0.409 µM

O=C(O)c1cc(N2CCCN(C3CCCC3)CC2)c2c(C3CCC3)nn(-c3ccccc3)c2n1 [compound 705, 3-cyclobutyl-4-(4-cyclopentyl-1,4-diazepan-1-yl)-1-phenyl-1H-pyrazolo[3,4-b]pyridine-6-carboxylic acid]
% Activation: 249.8%
EC50: 1.67 µM

O=C(O)c1cc(N2CCC[C@@H](O)C2)c2c(C3CCC3)nn(-c3ccccc3)c2n1 [compound 706, 3-cyclobutyl-4-[(3R)-3-hydroxypiperidin-1-yl]-1-phenyl-1H-pyrazolo[3,4-b]pyridine-6-carboxylic acid]
% Activation: 284.4%
EC50: 0.488 µM

CCCN1CCN(c2cc(C(=O)O)nc3c2c(C2CCC2)nn3-c2ccccc2)CC1 [compound 707, 3-cyclobutyl-1-phenyl-4-(4-propylpiperazin-1-yl)-1H-pyrazolo[3,4-b]pyridine-6-carboxylic acid]
% Activation: 326.3%
EC50: 0.341 µM

CN(C)C(=O)N1CCN(c2cc(C(=O)O)nc3c2c(C2CCC2)nn3-c2ccccc2)CC1 [compound 708, 3-cyclobutyl-4-[4-(dimethylcarbamoyl)piperazin-1-yl]-1-phenyl-1H-pyrazolo[3,4-b]pyridine-6-carboxylic acid]
% Activation: 314.8%
EC50: 0.147 µM

O=C(O)c1cc(N2CC(N3CCOCC3)C2)c2c(C3CCC3)nn(-c3ccccc3)c2n1 [compound 709, 3-cyclobutyl-4-[3-(morpholin-4-yl)azetidin-1-yl]-1-phenyl-1H-pyrazolo[3,4-b]pyridine-6-carboxylic acid]
% Activation: 223.9%
EC50: 1.67 µM

CCCCN1CCCN(c2cc(C(=O)O)nc3c2c(C2CCC2)nn3-c2ccccc2)CC1 [compound 710, 4-(4-butyl-1,4-diazepan-1-yl)-3-cyclobutyl-1-phenyl-1H-pyrazolo[3,4-b]pyridine-6-carboxylic acid]
% Activation: 282.6%
EC50: 1.35 µM

O=C(O)c1cc(N2CCC(N3CCCC(C(=O)N4CCOCC4)C3)CC2)c2c(C3CCC3)nn(-c3ccccc3)c2n1 (centres unmarked) [compound 711, 3-cyclobutyl-4-[3-(morpholine-4-carbonyl)[1,4′-bipiperidin]-1′-yl]-1-phenyl-1H-pyrazolo[3,4-b]pyridine-6-carboxylic acid]
% Activation: 248.8%
EC50: 1.11 µM

CCCN1CCCN(c2cc(C(=O)O)nc3c2c(C2CCC2)nn3-c2ccccc2)CC1 [compound 712, 3-cyclobutyl-1-phenyl-4-(4-propyl-1,4-diazepan-1-yl)-1H-pyrazolo[3,4-b]pyridine-6-carboxylic acid]
% Activation: 242.9%
EC50: 0.608 µM

O=C(O)c1cc(N2CCC3(C2)OCCO3)c2c(C3CCC3)nn(-c3ccccc3)c2n1 [compound 713, 3-cyclobutyl-4-(1,4-dioxa-7-azaspiro[4.4]nonan-7-yl)-1-phenyl-1H-pyrazolo[3,4-b]pyridine-6-carboxylic acid]
% Activation: 243.5%
EC50: 0.659 µM

O=C(O)c1cc(N2CCN(CCOCCO)CC2)c2c(C3CCC3)nn(-c3ccccc3)c2n1 [compound 714, 3-cyclobutyl-4-{4-[2-(2-hydroxyethoxy)ethyl]piperazin-1-yl}-1-phenyl-1H-pyrazolo[3,4-b]pyridine-6-carboxylic acid]
% Activation: 212.5%
EC50: 1.41 µM
